Laboratory results as given in patent US7901724B2, “Fermented tea obtained by tea-rolling processing of tea material leaves and loquat leaves, and composition having extract contained in fermented tea as active component” (Nagasaki Prefectural Government, priority 2004, dated 2011).

Tested on: normal rat
Test: Maltose load in normal rat, single administration, blood glucose levels
Type: in vivo
Details: maltose 2 g/kg load
Procedure: Maltose was administered to a normal rat at a dosage of 2 g per kg of the body weight. Subsequently, an extract obtained by extracting the fermented tea obtained by means of tea-rolling processing with hot water was administered to the rat at a dosage of 20 mg per kg of the body weight, or a product was administered to the rat at a dosage of 20 mg per kg of the body weight, in which a plant in Sri Lanka, one of the materials having high activities with the highest level among the materials reported heretofore (J. Agri. Food. Chem. 2004) was extracted with methanol, then concentrated, and then freeze-dried, followed by dissolving the freeze-dried product in water. 30 minutes, 60 minutes, and 120 minutes after the administration, the blood glucose levels were measured.
As an indication of 50% reduction of the elevation of blood glucose levels, EC50 is employed.
Maltose was administrated to a normal rat at a dosage of 2 g per kg of the body weight. Subsequently, an extract obtained by extracting the fermented tea obtained by means of tea-rolling processing with hot water was administered at a dosage of 10 mg per kg of the body weight or 20 mg per kg of the body weight. A decreasing rate of the total blood glucose level area up to 120 minutes after carrying out carbohydrate load (AUCO-120) is shown in Table 6.

C[C@H]1O[C@H](O[C@H]2[C@H](O)[C@@H](O)[C@@H](O[C@H]3[C@H](O)[C@@H](O)C(O)O[C@@H]3CO)O[C@@H]2CO)[C@H](O)[C@@H](O)[C@@H]1N[C@H]1C=C(CO)[C@@H](O)[C@H](O)[C@H]1O (stereo partly shown) [Acarbose, acarbose]
EC50 (50% reduction of the elevation of blood glucose levels): 3.1 mg/kg
